Test results published in US12281122B1, “PI3K inhibitors” (Cogent Biosciences, Inc., priority 2023, dated 2025).

Legend:
[1] = test system: SKBR3 (PI3Kα-Wild Type) cell line; assay: HTRF phospho-AKT(S473) cell assay in SKBR3 cells; type: cell-based, human; settings: Homo sapiens, SK-BR-3, 2 hours compound incubation, PDGF-BB stimulated
Protocol: (§1) Compounds in the present disclosure were tested in a cell based HTRF phospho-AKT(S473) (CisBio/Revvity) assay in human breast cancer cell lines as a measurement of PIK3CA activity through measuring AKT, a downstream effector. The activity of mutant PI3Kα-H1047R and PI3Kα-Wild Type was measured in the T47D (PI3Kα-H1047R) and SKBR3 (PI3Kα-Wild Type) cell lines, respectively. T47D cells were plated at 20,000 cells per well in 50 μL in RPMI medium supplemented with 10% FBS and 0.2 units/mL insulin, in 384 well plates. SKBR3 cells were plated at 25,000 cells per well in 50 μL in McCoy's 5A medium supplemented with 10% FBS, in 384 well plates. Cells were plated using a Combi Multidrop reagent dispenser (ThermoFisher), and placed in 5% CO2, 37° C. incubator overnight to adhere.
(§2) The next day, cells were treated with either compounds or vehicle (DMSO) in a 12-fold dose response curve of 1:3 dilutions, with 5 μM and 10 μM as the top concentrations for the T47D and SKBR3 cell lines, respectively. Compound treatment was facilitated via the D300e digital dispenser (Tecan), with a maximum DMSO concentration of 0.5%. Following compound addition, cell plates were incubated for 2 hours in 5% CO2, 37° C. incubator. The SKBR3 cells were stimulated and treated with 70 ng/ml PDGF-BB ligand (ThermoFisher) for the remaining 15 minutes of the incubation. Following compound incubation, compound and media was aspirated from the cells and 25 μL of supplemented lysis buffer was added per well, and incubated for 45 minutes at room temperature, shaking at 600 rpm. Next, 16 μL of cell lysate was added to a 384 well low volume ProxyPlate (Perkin Elmer/Revvity) mixed with 4 μL of HTRF antibodies (1:1 Eu Cryptate+d2 Cryptate). HTRF supplemented lysis buffer and antibody reagents were used from the phosphor-AKT(S473) HTRF assay kit (CisBio/Revvity), following manufacturers protocol recommendations. Plates were sealed and incubated at 4° C. overnight.
(§3) The following day, plates were centrifuged for 1 minute at 1000 rpm, and read on a PHERAstar plate reader. IC50 values were calculated using Spotfire software.

[2] = test system: T47D (PI3Kα-H1047R) cell line; assay: HTRF phospho-AKT(S473) cell assay in T47D cells; type: cell-based, human; settings: 2 hours compound incubation
Protocol: as §1, §2, §3

[3] = HTRF phospho-AKT(S473), SKBR3 (PI3Kα-Wild Type) cells
[4] = Homo sapiens, HTRF phospho-AKT(S473), T47D (PI3Kα-H1047R) cells
[5] = SKBR3 (PI3Kα-Wild Type) cells, HTRF phospho-AKT(S473)
[6] = Homo sapiens, T47D (PI3Kα-H1047R) cells, HTRF phospho-AKT(S473)

| SMILES | IC50 [1, 3] [µM] | IC50 [2, 4] [µM] | IC50 [1, 5] [µM] | IC50 [2, 6] [µM] | other results |
| --- | --- | --- | --- | --- | --- |
| Cc1cc([C@@H](C)Nc2ccc(Cl)nc2C(=O)NS(C)(=O)=O)c2nc(-c3ccn4nc(C)nc4c3)n(C)c(=O)c2c1 [Compound 822, (R)-6-chloro-3-((1-(3,6-dimethyl-2-(2-methyl-[1,2,4]triazolo[1,5-a]pyridin-7-yl)-4-oxo-3,4-dihydroquinazolin-8-yl)ethyl)amino)-N-(methylsulfonyl) picolinamide] | ≥ 5 | 0.25 to 0.5 | – | – | – |
| Cc1cc([C@@H](C)Nc2ccc(Cl)nc2C(=O)NS(C)(=O)=O)c2nc(N3C[C@@H]4[C@H](C3)[C@H]4c3ccc(C)nn3)n(C)c(=O)c2c1 [Compound 441, 6-chloro-3-(((R)-1-(3,6-dimethyl-2-((1R,5S,6R)-6-(6-methylpyridazin-3-yl)-3-azabicyclo [3.1.0]hexan-3-yl)-4-oxo-3,4-dihydroquinazolin-8-yl)ethyl)amino)-N-(methylsulfonyl) picolinamide] | 1 to 5 | < 0.25 | – | – | – |
| Cc1cc([C@@H](C)Nc2ccc(Cl)nc2C(=O)NS(C)(=O)=O)c2nc(-c3ccc([C@@H]4CN(C)CCO4)cc3)n(C)c(=O)c2c1 (relative stereo) [Compound 803, 6-chloro-3-(((R)-1-(3,6-dimethyl-2-(4-((R*)-4-methylmorpholin-2-yl)phenyl)-4-oxo-3,4-dihydroquinazolin-8-yl)ethyl)amino)-N-(methylsulfonyl) picolinamide] | ≥ 5 | < 0.25 | – | – | – |
| Cc1cc([C@@H](C)Nc2ccc(Cl)nc2C(=O)NS(C)(=O)=O)c2nc(C3CCN(c4ccc(C#N)cn4)CC3)n(C)c(=O)c2c1 [Compound 186, (R)-6-chloro-3-((1-(2-(1-(5-cyanopyridin-2-yl)piperidin-4-yl)-3,6-dimethyl-4-oxo-3,4-dihydroquinazolin-8-yl)ethyl)amino)-N-(methylsulfonyl) picolinamide] | – | – | 1 to 5 | < 0.25 | – |
| COC(=O)NS(=O)(=O)c1nc(Cl)ccc1N[C@H](C)c1cc(C)cc2c(=O)n(C)c(N3Cc4ccc(F)cc4C3)nc12 [Compound 131, methyl (R)-((6-chloro-3-((1-(2-(5-fluoroisoindolin-2-yl)-3,6-dimethyl-4-oxo-3,4-dihydroquinazolin-yl)ethyl)amino)pyridin-2-yl)sulfonyl) carbamate] | – | – | ≥ 5 | 0.5 to 1 | – |
| Cc1cc([C@@H](C)Nc2ccc(Cl)nc2C(=O)NS(C)(=O)=O)c2nc([C@H]3[C@@H]4CNC[C@@H]43)n(C)c(=O)c2c1 [Compound 848, 3-(((R)-1-(2-((1R,5S,6r)-3-azabicyclo[3.1.0]hexan-6-yl)-3,6-dimethyl-4-oxo-3,4-dihydroquinazolin-8-yl)ethyl)amino)-6-chloro-N-(methylsulfonyl) picolinamide] | – | – | – | – | IC50 ([1]; SKBR3 (PI3Kα-Wild Type) cell line, phospho-AKT(S473) HTRF): ≥ 5 µM; IC50 ([2]; Homo sapiens, T47D (PI3Kα-H1047R) cell line, phospho-AKT(S473) HTRF): 1 to 5 µM |
| C[C@@H](Nc1ccc(Cl)nc1C(=O)NS(C)(=O)=O)c1cc(C2CC2)cc2c(=O)n(C)c(N3C[C@@H]4[C@H](C3)[C@H]4c3ccn(C)n3)nc12 [Compound 382, 6-chloro-3-(((R)-1-(6-cyclopropyl-3-methyl-2-((1R,5S,6R)-6-(1-methyl-1H-pyrazol-3-yl)-3-azabicyclo[3.1.0]hexan-3-yl)-4-oxo-3,4-dihydroquinazolin-8-yl)ethyl)amino)-N-(methylsulfonyl) picolinamide] | – | – | 1 to 5 | 0.25 to 0.5 | – |
| CO[C@H]1C[C@@H](S(=O)(=O)NC(=O)c2nc(Cl)ccc2N[C@H](C)c2cc(C)cc3c(=O)n(C)c(N4Cc5ccc(F)cc5C4)nc23)C1 [Compound 378, 6-chloro-3-(((R)-1-(2-(5-fluoroisoindolin-2-yl)-3,6-dimethyl-4-oxo-3,4-dihydroquinazolin-8-yl)ethyl)amino)-N-(((1s,3S)-3-methoxycyclobutyl)sulfonyl)picolinamide] | – | – | ≥ 5 | 0.25 to 0.5 | – |
| CC(=O)N1CCN(c2ccc(-c3nc4c([C@@H](C)Nc5ccc(Cl)nc5C(=O)NS(C)(=O)=O)cc(C)cc4c(=O)n3C)c(F)c2)CC1 [Compound 785, (R)-3-((1-(2-(4-(4-acetylpiperazin-1-yl)-2-fluorophenyl)-3,6-dimethyl-4-oxo-3,4-dihydroquinazolin-8-yl)ethyl)amino)-6-chloro-N-(methylsulfonyl) picolinamide] | 1 to 5 | < 0.25 | – | – | – |
| Cc1cc([C@@H](C)Nc2ccc(Cl)nc2C(=O)NS(C)(=O)=O)c2nc(N3C[C@@H]4[C@H](C3)[C@H]4c3ccn(C(C)C)n3)n(C)c(=O)c2c1 [Compound 395, 6-chloro-3-(((R)-1-(2-((1R,5S,6R)-6-(1-isopropyl-1H-pyrazol-3-yl)-3-azabicyclo[3.1.0]hexan-3-yl)-3,6-dimethyl-4-oxo-3,4-dihydroquinazolin-8-yl)ethyl)amino)-N-(methylsulfonyl) picolinamide] | – | – | ≥ 5 | 0.25 to 0.5 | – |
| Cc1cc([C@@H](C)Nc2ccc(Cl)nc2C(=O)NS(C)(=O)=O)c2nc(N3C[C@@H]4C[C@H]3C[C@@H]4c3nn(C)cc3F)n(C)c(=O)c2c1 (relative stereo) [Compound 760, 6-chloro-3-(((R)-1-(2-((1R*,4S*,5R*)-5-(4-fluoro-1-methyl-1H-pyrazol-3-yl)-2-azabicyclo[2.2.1]heptan-2-yl)-3,6-dimethyl-4-oxo-3,4-dihydroquinazolin-8-yl)ethyl)amino)-N-(methylsulfonyl) picolinamide] | – | – | – | – | IC50 ([2]; HTRF phospho-AKT(S473), T47D (PI3Kα-H1047R) cells): 0.25 to 0.5 µM |

Continued, in another order:

| IC50 [1, 3] [µM] | IC50 [2, 4] [µM] | IC50 [1, 5] [µM] | IC50 [2, 6] [µM] | SMILES | other results |
| --- | --- | --- | --- | --- | --- |
| ≥ 5 | 0.5 to 1 | – | – | Cc1cc([C@@H](C)Nc2ccc(Cl)nc2C(=O)NS(C)(=O)=O)c2nc(N3CCC(c4cc(C5CC5)[nH]n4)CC3)n(C)c(=O)c2c1 [Compound 511, (R)-6-chloro-3-((1-(2-(4-(5-cyclopropyl-1H-pyrazol-3-yl)piperidin-1-yl)-3,6-dimethyl-4-oxo-3,4-dihydroquinazolin-8-yl)ethyl)amino)-N-(methylsulfonyl) picolinamide] | – |
| ≥ 5 | 0.25 to 0.5 | – | – | Cc1cc([C@@H](C)Nc2ccc(Cl)nc2C(=O)NS(C)(=O)=O)c2nc(N3CCN(c4ccnc(C(F)(F)F)n4)CC3)n(C)c(=O)c2c1 [Compound 589, (R)-6-chloro-3-((1-(3,6-dimethyl-4-oxo-2-(4-(2-(trifluoromethyl)pyrimidin-4-yl)piperazin-1-yl)-3,4-dihydroquinazolin-8-yl)ethyl)amino)-N-(methylsulfonyl) picolinamide] | – |
| – | – | 1 to 5 | < 0.25 | Cc1cc([C@@H](C)Nc2ccc(Cl)nc2C(=O)NS(C)(=O)=O)c2nc(N3CCC(Oc4ccn(C)n4)CC3)n(C)c(=O)c2c1 [Compound 265, (R)-6-chloro-3-((1-(3,6-dimethyl-2-(4-((1-methyl-1H-pyrazol-3-yl)oxy)piperidin-1-yl)-4-oxo-3,4-dihydroquinazolin-8-yl)ethyl)amino)-N-(methylsulfonyl) picolinamide] | – |
| ≥ 5 | < 0.25 | – | – | C[C@@H](Nc1ccc(Cl)nc1C(=O)NS(C)(=O)=O)c1cc(C(F)(F)F)cc2c(=O)n(C)c(N3CCC(c4nn(C)cc4F)CC3)nc12 [Compound 453, (R)-6-chloro-3-((1-(2-(4-(4-fluoro-1-methyl-1H-pyrazol-3-yl)piperidin-1-yl)-3-methyl-4-oxo-6-(trifluoromethyl)-3,4-dihydroquinazolin-8-yl)ethyl)amino)-N-(methylsulfonyl) picolinamide] | – |
